# Data taken from paper PMC1920558 (PLoS ONE, 2007).
# Entries after “also recorded” stand apart in the source; their conditions may differ. Where a SMILES comes first, the peptide text is derived from it.
# Assays:
# IDE [1] = biological target: T1, IDE (Rattus norvegicus, UniProt P35559); experiment: IDE digestion, products by RP-HPLC and MS; settings: 37°C
# T1 sequence (P35559 1-1019): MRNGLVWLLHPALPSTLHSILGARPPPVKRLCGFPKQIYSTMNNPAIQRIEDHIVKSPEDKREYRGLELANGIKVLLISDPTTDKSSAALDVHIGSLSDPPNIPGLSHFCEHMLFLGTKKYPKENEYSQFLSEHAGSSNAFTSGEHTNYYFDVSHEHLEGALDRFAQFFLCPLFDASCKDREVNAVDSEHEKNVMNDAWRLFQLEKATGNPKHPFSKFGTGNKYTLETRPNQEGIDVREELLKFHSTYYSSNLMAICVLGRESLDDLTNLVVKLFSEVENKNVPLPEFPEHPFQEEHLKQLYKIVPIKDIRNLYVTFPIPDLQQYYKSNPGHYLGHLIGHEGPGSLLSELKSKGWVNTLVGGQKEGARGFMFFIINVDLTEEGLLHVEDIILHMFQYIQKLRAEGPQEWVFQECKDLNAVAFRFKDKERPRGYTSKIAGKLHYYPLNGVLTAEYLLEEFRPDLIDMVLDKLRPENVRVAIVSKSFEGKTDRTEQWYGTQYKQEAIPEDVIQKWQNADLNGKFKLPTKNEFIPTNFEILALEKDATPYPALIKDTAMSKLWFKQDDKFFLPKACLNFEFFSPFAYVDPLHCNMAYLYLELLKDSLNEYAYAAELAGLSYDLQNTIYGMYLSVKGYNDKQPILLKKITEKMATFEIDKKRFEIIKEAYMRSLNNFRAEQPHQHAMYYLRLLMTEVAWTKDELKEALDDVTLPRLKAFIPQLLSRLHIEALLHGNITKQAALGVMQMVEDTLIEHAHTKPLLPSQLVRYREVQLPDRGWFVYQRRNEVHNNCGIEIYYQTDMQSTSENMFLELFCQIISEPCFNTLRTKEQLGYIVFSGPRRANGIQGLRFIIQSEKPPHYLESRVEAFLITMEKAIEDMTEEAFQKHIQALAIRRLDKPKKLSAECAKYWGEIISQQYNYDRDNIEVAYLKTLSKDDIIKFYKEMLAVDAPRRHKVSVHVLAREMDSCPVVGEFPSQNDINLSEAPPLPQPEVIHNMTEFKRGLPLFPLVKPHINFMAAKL
# Protocol: (§1) 16 µM T40 was incubated with or without 22 nM IDE (37°C) and the reaction stopped as indicated. (B) Specificity of IDE activity. […] For (A) and (B), digestion products were resolved (10% Tris-Tricine SDS-PAGE), electro-blotted onto nitrocellulose and probed with KD69 (specific for the T40). Marker proteins are indicated. Arrows indicate the positions of T40 monomers and dimers. (C) 60 µM T40 was incubated with or without 50 nM IDE (37°C) and products separated by RP-HPLC (peaks annotated a–h). (D) Positions of IDE initial cleavages (arrows) within T40 (2 min digestion). (E) Identity of the major peptides (italics) and of CSR species in peaks a–h, analyzed by MS.
# (A) Positions of IDE initial cleavages (arrows) within AChE586-599. […] 63 µM AChE586-599 was incubated with or without 45 nM IDE (A) or 273 nM IDE (B)(37°C, 30 min) and RP-HPLC peaks analyzed by MS. […] AChE586-599 oligomers (16 µM) cross-linked by photo-induced cross-linking were incubated with or without 16.3 nM IDE (37°C). Digestion products were resolved (16.5% Tris-Tricine SDS-PAGE), electro-blotted onto nitrocellulose and probed with Mab 105A (specific for AChE586-599 in β-sheet conformation). Marker proteins are indicated.
# To identify degradation products, 60 µM T40 was incubated with 50 nM IDE; 63 µM AChE586-599 with 45 nM or 273 nM IDE; and 40 µM AChE586-599 with 772 nM NEP and separated by reverse phase-HPLC (RP-HPLC). Peaks were collected and identities determined on a Q-TOF Micro mass spectrometer (Micromass, UK) with MassLynx 4.0 and MaxEnt 3 software. Lyophilized HPLC separated T40/IDE products were used for surface tension and seeding experiments.
# Reaction products were resolved by RP-HPLC with a Sephasil C4 column (5 µm, 4.6×250 mm; Amersham Biosciences, UK) using a 5–95% linear gradient of acetonitrile in 0.1% trifluoroacetic acid over 25 min (flow rate 1 ml/min). The eluent was monitored by UV absorption at 280 nm.
# NEP = NEP digestion, products by RP-HPLC and MS; format: in vitro ADME; settings: 37°C; for effect of NEP exposure on peptide level: 60 µM peptide, 1.2 µM NEP, 4 hours, 100 mM Tris-HCl pH 7.4, 1% Triton X-100, RP-HPLC
# Protocol: Figure 4 NEP preferentially degrades monomeric forms of AChE586-599. (A) 60 µM of either substance P or T40 were incubated with or without 1.2 µM NEP (37°C, 4 hours) and the digestion mixture subjected to RP-HPLC. (B) Positions of NEP initial cleavages (arrows) within AChE586-599. (C) Cleavage map after complete NEP digestion of AChE586-599. 40 µM AChE586-599 was incubated with 772 nM NEP (30 min (B) or 4 hours (C), 37°C) and RP-HPLC peaks analyzed by MS. (D) NEP degrades AChE586-599 oligomers. […] Digestion products were analyzed as described in Figure 3C. Arrows indicate two digested AChE586-599 oligomers. (E) T40/IDE products are substrates for NEP. 60 µM T40 was incubated with 50 nM IDE (37°C, 30 min) and products separated by RP-HPLC. Peaks e–f (see Figure. 2C) were lyophilized, incubated with 772 nM NEP (37°C, 2 hours) and subjected to RP-HPLC.
# 60 µM substance P or T40 were incubated with or without 1.2 µM NEP (4 hours), stopped (0.5% trifluoroacetic acid) and subjected to RP-HPLC.
# IDE [2] = biological target: T1, IDE; experiment: IDE digestion of T40, SDS-PAGE and western blot with KD69; settings: 16 µM T40, 22 nM IDE, 37°C
# Protocol: as §1
# (§2) IDE and NEP (Merck, UK) digestions were at 37°C in 100 mM KHPO4/KH2PO4 buffer pH 7.5 (buffer A) or 100 mM Tris-HCl pH 7.4, 1% Triton X-100 (buffer B) respectively. 16 µM T40 was incubated with 22 nM IDE or 309 nM NEP, and 16 or 14.8 µM AChE586-599 oligomers with 16.3 nM IDE or 285 nM NEP. Reactions were stopped by boiling in a Laemmli's dissociation buffer with 100 mM DTT and subjected to SDS-PAGE (10% Tris-Tricine for T40 and 16.5% Tris-Tricine for AChE586-599 oligomers). […]
# IDE (insulysin), 45 nM = experiment: IDE in 100 mM KHPO4/KH2PO4 buffer pH 7.5 (buffer A); settings: 37°C, up to 30 min
# NEP (neprilysin), 772 nM = experiment: NEP in 100 mM Tris-HCl pH 7.4, 1% Triton X-100 (buffer B); settings: 37°C, up to 4 hours
# IDE (insulysin), 50 nM = experiment: IDE in 100 mM KHPO4/KH2PO4 buffer pH 7.5 (buffer A); settings: 37°C, up to 2 hours
# NEP (neprilysin), 1.2 µM = experiment: NEP in 100 mM Tris-HCl pH 7.4, 1% Triton X-100 (buffer B); settings: 37°C, up to 4 hours
# IDE [3] = biological target: T1, IDE; experiment: Specificity/inhibition of T40-degrading activity of IDE; format: biochemical; set-up: purchased Merck, UK; settings: 16 µM T40, 22 nM IDE, 37°C, 90 min
# Protocol: as §1, §2
compound,measurement,setting,value
CSCC[C@H](NC(=O)[C@H](Cc1ccc(O)cc1)NC(=O)[C@H](CO)NC(=O)[C@H](CO)NC(=O)[C@H](Cc1c[nH]c2ccccc12)NC(=O)[C@H](CCCNC(=N)N)NC(=O)[C@H](Cc1c[nH]cn1)NC(=O)[C@H](Cc1ccccc1)NC(=O)[C@H](CCC(=O)O)NC(=O)[C@H](C)N)C(=O)N[C@H](C(=O)N[C@@H](Cc1c[nH]cn1)C(=O)N[C@@H](Cc1c[nH]c2ccccc12)C(=O)N[C@@H](CCCCN)C(=O)O)C(C)C [AChE586-599] (H-AEFHRWSSYMVHWK-OH),degradation of AChE586-599 by IDE,"IDE [1]; 63 µM AChE586-599, 45 nM IDE, 30 min, buffer pH 7.5, RP-HPLC/MS",degraded
same,extent of AChE586-599 digestion by IDE,"IDE [1]; 63 µM AChE586-599, 273 nM IDE, 30 min, RP-HPLC/MS",complete IDE digestion
same,time for complete digestion of AChE586-599 by NEP,"NEP; 40 µM AChE586-599, 772 nM NEP, Tris-HCl pH 7.4, 1% Triton X-100, RP-HPLC/MS",≤ 4 h
CSCC[C@H](NC(=O)[C@H](Cc1ccc(O)cc1)NC(=O)[C@H](CO)NC(=O)[C@H](CO)NC(=O)[C@H](Cc1c[nH]c2ccccc12)NC(=O)[C@H](CCCNC(=N)N)NC(=O)[C@H](Cc1c[nH]cn1)NC(=O)[C@H](Cc1ccccc1)NC(=O)[C@H](CCC(=O)O)NC(=O)[C@H](C)NC(=O)[C@H](CCCCN)NC(=O)[C@H](Cc1c[nH]c2ccccc12)NC(=O)[C@H](CCC(N)=O)NC(=O)[C@H](CCCNC(=N)N)NC(=O)[C@H](CCC(=O)O)NC(=O)[C@H](C)NC(=O)[C@H](CCC(=O)O)NC(=O)[C@H](CC(=O)O)NC(=O)[C@H](CC(C)C)NC(=O)[C@@H](NC(=O)[C@@H](N)CC(=O)O)[C@@H](C)O)C(=O)N[C@H](C(=O)N[C@@H](Cc1c[nH]cn1)C(=O)N[C@@H](Cc1c[nH]c2ccccc12)C(=O)N[C@@H](CCCCN)C(=O)N[C@@H](CC(N)=O)C(=O)N[C@@H](CCC(N)=O)C(=O)N[C@@H](Cc1ccccc1)C(=O)N[C@@H](CC(=O)O)C(=O)N[C@@H](Cc1c[nH]cn1)C(=O)N[C@@H](Cc1ccc(O)cc1)C(=O)N[C@@H](CO)C(=O)N[C@@H](CCCCN)C(=O)N[C@@H](CCC(N)=O)C(=O)N[C@@H](CC(=O)O)C(=O)N[C@@H](CCCNC(=N)N)C(=O)N[C@@H](CS)C(=O)N[C@@H](CO)C(=O)N[C@@H](CC(=O)O)C(=O)N[C@@H](CC(C)C)C(=O)O)C(C)C [T40] (H-DTLDEAERQWKAEFHRWSSYMVHWKNQFDHYSKQDRCSDL-OH),incubation time for complete disappearance of monomeric T40 with IDE,"IDE [2]; 100 mM KHPO4/KH2PO4 buffer pH 7.5, western blot KD69",≤ 80 min
same,fate of dimeric T40 with IDE,"IDE [2]; buffer pH 7.5, up to 80 min, western blot KD69",remained undigested
same,extent of T40 digestion by IDE at 30 min,"IDE [1]; 60 µM T40, 50 nM IDE, buffer pH 7.5, RP-HPLC C4, UV 280 nm",near complete digestion
same,effect of NEP exposure on peptide level,NEP,remained unchanged
AEFHRWSSYMVHWK,cleaved bond,"IDE (insulysin), 45 nM","Ser8-Tyr9, first_seen, 30 min; also recorded: His12-Trp13, first_seen, 30 min"
same,cleaved bond,"NEP (neprilysin), 772 nM","Ser8-Tyr9, first_seen, 30 min; also recorded: His12-Trp13, first_seen, 30 min; also recorded: H4-R5, first_seen, 30 min"
DTLDEAERQWKAEFHRWSSYMVHWKNQFDHYSKQDRCSDL,cleaved bond,"IDE (insulysin), 50 nM","Phe14-His15, first_seen, 2 min; also recorded: Ser19-Tyr20, first_seen, 2 min; also recorded: Trp24-Lys25, first_seen, 2 min"
same,not cleaved,"NEP (neprilysin), 1.2 µM",levels remained unchanged after exposure to NEP (4 hours)
insulin,concentration giving complete inhibition of IDE degradation of T40,"IDE [3]; western blot, equimolar to T40",16 µM
same,inhibition of IDE degradation of T40,"IDE [3]; insulin or IgG 2–16 µM, 1,10-phenanthroline 1 and 10 mM",dose dependent inhibition
substance P [reference compound],effect of NEP exposure on peptide level,NEP,degradation
